Source: patent US20090246293A1 (priority 2008, published 2009)
Where two headings read alike, the source gives them in different places.

Key:
[1] = test system: Pseudoperonospora cubensis; test: Drop-band treatment of cucumber leaves, then spray inoculation with zoospores (Examples 1-3); format: in vivo
Method: The following examples were carried out on greenhouse and growth chamber experiments on cucumber plants. The cucumber plants were grown from seed in soil-free medium mix (Metro-Mix 360®) and maintained in a glasshouse with supplementary light sources to provide a 16 hour photoperiod at 24-29° C. until the plants had produced 1-2 true leaves. Plants were then trimmed to 1 true leaf, approximately 8 cm across by removing any additional leaves.
Referring below to Table 1, Dithane M45 and Dithane OS are standard commercial formulations. Isovaleraldehyde loaded onto PergoPak was prepared using the following procedure: a mixture of 1.35 g of PergoPak M (polyurea), 0.15 g of isovaleraldehyde and 8 mL of ether was stirred at room temperature for 10 min. The mixture was then concentrated by rotatory evaporation at room temperature under a slight vacuum to provide a solid that was air dried for an hour at room temperature and then bottled. All treatments were prepared by adding the appropriate amount of each treatment to distilled water to give the desired concentration of active ingredient. Dithane® M45 suspensions were initially prepared via serial dilution. Mancozeb/isovaleraldehyde solutions were prepared by adding a prepared isovaleraldehyde solution to a prepared mancozeb suspension. All solutions were vortexed and sonicated prior to treatment application to ensure that they were homogenous.
A sporangial suspension of Pseudoperonospora cubensis was made by collecting leaves with freshly sporulating lesions and washing them in distilled water, which was made up of equal volumes of chilled (4° C.) and tap distilled water (21° C.). The suspension was then left on the lab bench for 2 hours to allow the release of zoospores from the sporangia. After 2 hours the suspension was filtered through filter paper (“Whatman”, 12.5 cm, grade 113V) to remove any remaining sporangia and mycelial fragments. The zoospore concentration was determined and then adjusted to the desired concentration with distilled water.
For each example described below, an area 5 cm wide by 1 cm deep was initially marked on each cucumber leaf by placing a mark in each corner of the area. This was repeated on four separate plants to give four replicates for each treatment. Ten 15 microlitre drops were then applied to each leaf in two 5 drop bands (1 cm between each drop) and allowed to dry overnight. Subsequently a zoospore suspension of Pseudoperonospora cubensis (30,000 zoospores/mL) was sprayed with a hand-atomiser to the entire leaf until run-off. Plants were placed in a dew room (22° C. and 99% RH) for 24 hours then maintained in a growth room with supplementary light sources to provide a 14 hour photoperiod at 18° C. and 70% RH until disease assessment.
Assessment of the effectiveness of the treatment was done by visual infection within the banded area. The banded area was evaluated on a percentage scale (with 0% representing no infection and 100% representing infection of the entire area) after 5-7 days.

[2] = test system: Pseudoperonospora cubensis (PSPECU); conditions: in vivo
[3] = test system: Phytophthora infestans (PHYTIN); format: in vivo
[4] = format: in vivo; conditions: mancozeb:fluazinam 1:1, mancozeb:dimethomorph 2:1, Formul. I/II at 100 ppm, untreated check 95%
[5] = test system: Plasmopara viticola (PLASVI); format: in vivo; conditions: for Reduction in percent disease: aldehyde derivative 100 ppm with mancozeb
Phytophthora infestans = format: in vivo; conditions: for % Disease: potatoes, field, six sprays, rated 8 days after sixth application; for Disease control compared to Dithane alone (in words): combined with Dithane, potato field trial
[6] = fungicide with Formulation I at 100 ppm, Table 18
[7] = fungicide with Formulation I at 100 ppm, Table 19
[8] = fungicide with Formulation I at 100 ppm, Table 20
[9] = Dithane 600 g ai/ha plus 300 ppm compound

mancozeb
Percent infection of Pseudoperonospora cubensis on cucumbers ([1]; mancozeb 10 ppm (Dithane 60 OS) alone, 5 days after application): 31%
Percent infection of Pseudoperonospora cubensis on cucumbers ([1]; mancozeb 10 ppm (Dithane M45) alone, 6 days after application): 31%
Percent infection of Pseudoperonospora cubensis on cucumbers ([1]; mancozeb 10 ppm (Dithane M45) alone, 7 days after application): 30%
Percent infection of Pseudoperonospora cubensis on cucumbers ([1]; mancozeb 50 ppm (Dithane 60 OS) alone, 5 days after application): 25%
Percent infection of Pseudoperonospora cubensis on cucumbers ([1]; mancozeb 50 ppm (Dithane M45) alone, 6 days after application): 21%
Percent infection of Pseudoperonospora cubensis on cucumbers ([1]; mancozeb 50 ppm (Dithane M45) alone, 7 days after application): 11%
Percent infection of Pseudoperonospora cubensis on cucumbers ([1]; mancozeb 100 ppm (Dithane 60 OS) alone, 5 days after application): 10%
Percent infection of Pseudoperonospora cubensis on cucumbers ([1]; mancozeb 100 ppm (Dithane M45) alone, 6 days after application): 16%
Percent infection of Pseudoperonospora cubensis on cucumbers ([1]; mancozeb 100 ppm (Dithane M45) alone, 7 days after application): 6%
effect of Formulation I on the effectiveness of fungicides, PSPECU [2]: xx (key: x: 0-20% reduction in percent disease; xx: 21-35% reduction in percent disease; xxx: 36-50% reduction in percent disease; xxxx: >50% reduction in percent disease)
Reduction in percent disease PHYTIN [3, 6]: x (0-20% reduction in percent disease)
Reduction in percent disease PHYTIN [3, 7]: xxx (36-50% reduction in percent disease)
effect of Formulation I on the effectiveness of fungicides, PHYTIN [3, 8]: xx (21-35% reduction in percent disease)
Percent disease ([4]; 1.6 ppm mancozeb): 71%
Percent disease ([4]; 3.1 ppm mancozeb): 79%
Reduction in percent disease PLASVI [5, 6]: xx (21-35% reduction in percent disease)
Reduction in percent disease PLASVI [5, 7]: xx (21-35% reduction in percent disease)
effect of Formulation I on the effectiveness of fungicides, PLASVI [5, 8]: xx (21-35% reduction in percent disease)

condensation product of urea and isovalderaldehyde [Compound B]
Reduction in percent disease [2]: x (key: x: 0-20% reduction in percent disease; xx: 21-35% reduction in percent disease; xxx: 36-50% reduction in percent disease; xxxx: >50% reduction in percent disease)
% Disease (Phytophthora infestans; 300 ppm compound alone): 98%
% Disease (Phytophthora infestans; [9]): 9%
Disease control compared to Dithane alone (in words) (Phytophthora infestans): significantly improve disease control
Reduction in percent disease ([5]; PLASVI, Table 13): xx (21-35% reduction in percent disease)
Reduction in percent disease ([5]; PLASVI, Table 15): xx (21-35% reduction in percent disease)

CCCC=NNC(=O)Nc1ccccc1 [Compound A]
Reduction in percent disease [2]: xx (key: x: 0-20% reduction in percent disease; xx: 21-35% reduction in percent disease; xxx: 36-50% reduction in percent disease; xxxx: >50% reduction in percent disease)
% Disease (Phytophthora infestans; 300 ppm compound alone): 98%
% Disease (Phytophthora infestans; [9]): 20%
Disease control compared to Dithane alone (in words) (Phytophthora infestans): significantly improve disease control
Reduction in percent disease ([5]; PLASVI, Table 13): xx (21-35% reduction in percent disease)

N#Cc1c(Cl)c(Cl)c(Cl)c(C#N)c1Cl [Chlorothalonil, chlorothalonil]
Percent infection of Pseudoperonospora cubensis on cucumbers ([1]; chlorothalonil 5 ppm alone, 7 days after application): 24%
Percent infection of Pseudoperonospora cubensis on cucumbers ([1]; chlorothalonil 20 ppm alone, 7 days after application): 9%
Percent infection of Pseudoperonospora cubensis on cucumbers ([1]; chlorothalonil 100 ppm alone, 7 days after application): 0%
Reduction in percent disease, Formul. I [2]: x (key: x: 0-20% reduction in percent disease; xx: 21-35% reduction in percent disease; xxx: 36-50% reduction in percent disease; xxxx: >50% reduction in percent disease)
Reduction in percent disease, Formul. I ([3]; PHYTIN, fungicide with Formulation I at 100 ppm of attractant derivative, Table 22): x (0-20% reduction in percent disease)
Reduction in percent disease, Formul. I ([5]; PLASVI, fungicide with Formulation I at 100 ppm of attractant derivative, Table 22): x (0-20% reduction in percent disease)
